Experimental data: patent publication US12084472B2 (Ardelyx, Inc., priority 2015, dated 2024)

target: T1, human TGR5 (Homo sapiens, UniProt Q8TDU6); assay: Cell-based TGR5 assay (cAMP generation, HTRF); conditions: HEK293 cells stably transfected with human TGR5; cAMP by HTRF; 30 minutes at 37° C.; read-out: pEC50 Human TGR5 (converted)
T1 construct: expressed in transfected cells; host or cells: HEK293
T1 sequence (Q8TDU6 1-330): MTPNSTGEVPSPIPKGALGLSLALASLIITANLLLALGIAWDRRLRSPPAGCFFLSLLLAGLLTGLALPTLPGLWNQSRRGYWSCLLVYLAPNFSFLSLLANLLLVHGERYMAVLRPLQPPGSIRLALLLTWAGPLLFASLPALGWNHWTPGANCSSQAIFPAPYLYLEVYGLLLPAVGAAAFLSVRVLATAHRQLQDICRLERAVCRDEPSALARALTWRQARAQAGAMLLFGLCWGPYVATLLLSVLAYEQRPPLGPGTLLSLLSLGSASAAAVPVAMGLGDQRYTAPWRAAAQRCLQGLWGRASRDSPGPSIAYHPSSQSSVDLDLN
Procedure, shortened: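 Read-out was HTRF detection of cAMP, converted to concentration via a standard curve and fitted (3-parameter logistic) for pEC50 and maximal response. Agonist stimulation used HEK293 cells stably transfected with human TGR5, incubated 30 min at 37° C in IBMX-containing buffer at 0.05 nM to 10 μM compound.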

SMILES	EC50 [nM]
CC(CCCC(=O)N1CCC(NC(=O)NC[C@H](O)[C@@H](O)[C@H](O)[C@H](O)CO)CC1)c1ccc(Cl)c(CNC2(c3cnccc3-c3ccccc3OC3CC3)CC2)c1 (stereo partly drawn) [Compound I-320, 1-[1-(5-{4-chloro-3-[({1-[4-(2-cyclopropoxyphenyl)pyridin-3-yl]cyclopropyl}amino)methyl]phenyl}hexanoyl)piperidin-4-yl]-3-[(2S,3R,4R,5R)-2,3,4,5,6-pentahydroxyhexyl]urea]	< 100
CN(CCOCCNC(=O)N[C@@H](CO)[C@@H](O)[C@H](O)[C@H](O)CO)S(=O)(=O)c1ccc(Cl)c(COC2(c3cnccc3-c3ccccc3OC3CC3)CC2)c1 (stereo in doubt) [Compound I-406, 1-(2-{2-[N-methyl4-chloro-3-({1-[4-(2-cyclopropoxyphenyl)pyridin-3-yl]cyclopropoxy}methyl)benzenesulfonamido]ethoxy}ethyl)-3-[(2S,3R,4S,5R)-1,3,4,5,6-pentahydroxyhexan-2-yl]urea]	< 100
O=C(NCCOCCNS(=O)(=O)c1ccc(Cl)c(COC2(c3cnccc3-c3ccccc3OC3CC3)CC2)c1)NC[C@H](O)[C@@H](O)[C@H](O)[C@H](O)CO (stereo in doubt) [Compound I-403, 1-(2-{2-[4-chloro-3-({1-[4-(2-cyclopropoxyphenyl)pyridin-3-yl]cyclopropoxy}methyl)benzenesulfonamido]ethoxy}ethyl)-3-[(2S,3R,4R,5R)-2,3,4,5,6-pentahydroxyhexyl]urea]	< 100
CC(CCCC(=O)NCCN1CCN(C(=O)NC[C@H](O)[C@@H](O)[C@H](O)[C@H](O)CO)CC1)c1ccc(Cl)c(CNC2(c3cnccc3-c3ccccc3OC3CC3)CC2)c1 (stereo partly drawn) [Compound I-322, 4-[2-(5-{4-chloro-3-[({1-[4-(2-cyclopropoxyphenyl)pyridin-3-yl]cyclopropyl}amino)methyl]phenyl}hexanamido)ethyl]-N-[(2S,3R,4R,5R)-2,3,4,5,6-pentahydroxyhexyl]piperazine-1-carboxamide]	< 100
CC(CO)Oc1ccccc1-c1ccncc1C1(NCc2cc(Cl)ccc2Cl)CC1 (stereo not drawn) [Compound I-20, 2-{2-[3-(1-{[(2,5-dichlorophenyl)methyl]amino}cyclopropyl)pyridin-4-yl]phenoxy}propan-1-ol]	126 to 1000
CCN(C[C@H](O)[C@@H](O)[C@H](O)[C@H](O)CO)C(=O)CCCC(C)c1ccc(Cl)c(COC2(c3cnccc3-c3ccccc3OC3CC3)CC2)c1 (stereo partly drawn) [Compound I-373, 5-[4-chloro-3-({1-[4-(2-cyclopropoxyphenyl)pyridin-3-yl]cyclopropoxy}methyl)phenyl]-N-ethyl-N-[(2S,3R,4R,5R)-2,3,4,5,6-pentahydroxyhexyl]hexanamide]	< 100

Next, values leading:

EC50 [nM]	SMILES
126 to 1000	O=C(CCCSc1ccc(Cl)c(COC2(c3cnccc3-c3ccccc3OC3CC3)CC2)c1)N(C[C@H](O)[C@@H](O)[C@H](O)[C@H](O)CO)C1CCOCC1 [Compound I-669, 4-{[4-chloro-3-({1-[4-(2-cyclopropoxyphenyl)pyridin-3-yl]cyclopropoxy}methyl)phenyl]sulfanyl}-N-(oxan-4-yl)-N-[(2S,3R,4R,5R)-2,3,4,5,6-pentahydroxyhexyl]butanamide]
< 100	O=C(NCCCCN(CCO)S(=O)(=O)c1ccc(Cl)c(COC2(c3cnccc3-c3ccccc3OC3CC3)CC2)c1)NC[C@H](O)[C@@H](O)[C@H](O)[C@H](O)CO [Compound I-414, 1-{4-[N-(2-hydroxyethyl)4-chloro-3-({1-[4-(2-cyclopropoxyphenyl)pyridin-3-yl]cyclopropoxy}methyl)benzenesulfonamido]butyl}-3-[(2S,3R,4R,5R)-2,3,4,5,6-pentahydroxyhexyl]urea]
< 100	CN(CCSc1ccc(Cl)c(COC2(c3cnccc3-c3ccccc3OC3CC3)CC2)c1)C(=O)[C@@H](O)[C@@H](O)[C@H](O)[C@@H](O)CO [Compound I-555, (2S,3S,4R,5S)-N-(2-{[4-chloro-3-({1-[4-(2-cyclopropoxyphenyl)pyridin-3-yl]cyclopropoxy}methyl)phenyl]sulfanyl}ethyl)-2,3,4,5,6-pentahydroxy-N-methylhexanamide]
